Assay results: patent US20220226257A1, “USE OF CANNABINOIDS IN THE TREATMENT OF COM[…] EPILEPSY” (GW Research Limited, priority 2019, published 2022)

What was measured:
[1] = test system: children and young adults with treatment resistant epilepsy associated with Dravet syndrome and Lennox-Gastaut syndrome; assay: Principal component analysis of QOLCE survey data pooled from three randomised controlled clinical trials; format: in vivo, human
Text: As described in Example 1 above PCA is a useful tool to scrutinise data which have several variables. A similar analysis was undertaken on the data produced using data pooled from three randomised controlled clinical trials on children and young adults with treatment resistant epilepsy associated with Dravet syndrome (one trial) and Lennox-Gastaut syndrome (LGS) (2 trials).
In the two placebo-controlled studies of CBD as a treatment for seizures associated with LGS, cannabidiol (CBD) was used as add-on treatment in patients who were defined as treatment-resistant. Patients had previously tried and stopped using a median of 6 AEDs and were being maintained on a median of 3 AEDs.
The first study was a 1:1 randomised, double-blind, 14-week comparison of cannabidiol oral solution (CBD-OS) versus placebo. The treatment period consisted of a two-week titration period followed by a 12-week maintenance period. The treatment period was followed by a 10-day taper period and a four-week follow-up period. […]
The Quality of Life in Childhood Epilepsy (QOLCE) survey was used to measure multiple QOL domains. […] The QOLCE questionnaire assessed 91 items divided into five sub-domains: physical function; cognitive function; emotional well-being; social function and behaviour. General health was also recorded.

[2] = test system: patients suffering from epilepsy syndromes (childhood onset treatment-resistant epilepsy); assay: Case study analysis of quality of life measures, open label study (expanded access programme); format: in vivo, human
Experimental: The present example provides further data on additional epilepsy syndromes which were studied as part of the expanded access programme described in Example 1.
(§1) Children and young adults with severe, childhood onset treatment-resistant epilepsy (TRE) were tested with a highly purified extract of cannabidiol (CBD) obtained from a cannabis plant. The participants in the study were part of an expanded access compassionate use program for CBD.
(§2) All patients entered a baseline period of 4 weeks when parents/caregivers kept prospective seizure diaries, noting all countable motor seizure types.
(§3) The patients then received a highly purified CBD extract (greater than 98% CBD w/w) in sesame oil, of known and constant composition, at a dose of 5 mg/kg/day in addition to their baseline anti-epileptic drug (AED) regimen.
(§4) Laboratory testing for hematologic, liver, kidney function, and concomitant AED levels was performed at baseline, and at regular intervals throughout the 12 weeks of the study.
Table 7 below details the results obtained at the end of the study period (after between 12 and 108 weeks) from patients suffering from epilepsy syndromes in an open label study.

[3] = test system: children and young adults with severe, childhood onset treatment-resistant epilepsy (TRE); assay: Principal component analysis of QOLCE survey data, open label (expanded access) study of CBD; format: in vivo, human
Experimental: PCA is a useful tool to visualise relatedness between populations of data and was used in the present example to determine the symptom domains that were improved during an open label study of cannabidiol (CBD) in patients with treatment resistant epilepsy.
as §1, §2, §3, §4
The Quality of Life in Childhood Epilepsy (QOLCE) survey was used to measure multiple QOL domains. […] The QOLCE questionnaire assessed 91 items divided into five sub-domains: physical function; cognitive function; emotional well-being; social function and behaviour. General health was also recorded. […]

[4] = test system: epileptic male Wistar rats (RISE-SRS); details: shown previously; cited from earlier work
[5] = test system: patients with Lennox-Gastaut syndrome; assay: Biostatistical analysis of QOLCE subscale scores versus placebo, randomised controlled trial; format: in vivo, human; parameters: key to Biostatistical analysis of QOL subscale score versus placebo: ↔: no change (indicated by); ↑: a difference of greater than 10 points between medians (indicated by t); this change was statistically significant (indicated by *); details: 20 mg/kg/day
Text: The following example uses biostatistical analysis to look for trends in QOL data collected in a randomised controlled trial of cannabidiol in patients with Lennox-Gastaut syndrome.
This study was a 1:1 randomised, double-blind, 14-week comparison of cannabidiol oral solution (CBD-OS) versus placebo. The treatment period consisted of a two-week titration period followed by a 12-week maintenance period. The treatment period was followed by a 10-day taper period and a four-week follow-up period. The study aimed to determine the efficacy, safety and tolerability of 20 mg/kg/day cannabidiol compared with placebo.
The Quality of Life in Childhood Epilepsy (QOLCE) survey was used to measure multiple QOL domains. Caregivers completed the survey at baseline and after the 12 weeks of treatment. The QOLCE questionnaire assessed 91 items divided into five sub-domains: physical function; cognitive function; emotional well-being; social function and behaviour. General health was also recorded.
Table 6 below details the areas where there no change (indicated by or a difference of greater than 10 points between medians (indicated by t), and whether this change was statistically significant (indicated by *).

[6] = test system: paediatric patients with epilepsy; details: care-giver-reported, 12 weeks open label; cited from earlier work

C=C(C)[C@@H]1CCC(C)=C[C@H]1c1c(O)cc(CCCCC)cc1O [CBD, Cannabidiol]
areas of QOL improved despite no improvement in seizure burden [1]: memory; language; control/helplessness; stigma item and cognition | areas associated with quality of life with improvements ([1]; 10 or 20 mg/kg/day): quality of life item; general health; social interactions; social activities; attention/concentration; overall quality of life; memory; language; control/helplessness; stigma item and cognition | patients with a positive response (slightly improved; much improved or very much improved) ([2]; of the 39 patients for which data were recorded): 34 | QOL measure: Very much improved ([2]; patient 245-01, SNAP25, end of study period): ✓ | QOL measure: Very much improved ([2]; patient 245-03, FIRES, end of study period): ✓ | QOL measure: Much improved ([2]; patient 245-06, DUP15Q, end of study period): ✓ | QOL measure: Very much improved ([2]; patient 245-08, CDKL5, end of study period): ✓ | QOL measure: Very much improved ([2]; patient 245-11, CDKL5, end of study period): ✓ | QOL measure: Very much improved ([2]; patient 245-12, Aicardi, end of study period): ✓ | QOL measure: Much improved ([2]; patient 245-28, Aicardi, end of study period): ✓ | QOL measure: Much improved ([2]; patient 245-32, DUP15Q, end of study period): ✓ | QOL measure: Very much improved ([2]; patient 245-37, CDKL5, end of study period): ✓ | QOL measure: Slightly improved ([2]; patient 245-38, CDKL5, end of study period): ✓ | QOL measure: Much improved ([2]; patient 245-40, DUP15Q, end of study period): ✓ | QOL measure: Much improved ([2]; patient 245-42, DUP15Q, end of study period): ✓ | QOL measure: Slightly improved ([2]; patient 245-43, DUP15Q, end of study period): ✓ | QOL measure: Slightly improved ([2]; patient 245-45, CDKL5, end of study period): ✓ | QOL measure: Very much improved ([2]; patient 245-47, CDKL5, end of study period): ✓ | QOL measure: Very much improved ([2]; patient 245-48, CDKL5, end of study period): ✓ | QOL measure: Slightly worse ([2]; patient 245-56, CDKL5, end of study period): ✓ | QOL measure: Much improved ([2]; patient 245-57, Aicardi, end of study period): ✓ | QOL measure: Much improved ([2]; patient FIL-01, Aicardi, end of study period): ✓ | QOL measure: Very much improved ([2]; patient FIL-09, Doose, end of study period): ✓ | QOL measure: Much improved ([2]; patient FIL-14, Doose, end of study period): ✓ | QOL measure: Slightly worse ([2]; patient FIL-25, Aicardi, end of study period): ✓ | QOL measure: No change ([2]; patient FLAM-25, Tuberous sclerosis, end of study period): ✓ | QOL measure: Very much improved ([2]; patient LCH-04, Aicardi, end of study period): ✓ | QOL measure: No change ([2]; patient LCH-08, Aicardi, end of study period): ✓ | QOL measure: Very much improved ([2]; patient LCH-12, Aicardi, end of study period): ✓ | QOL measure: Very much improved ([2]; patient LCH-18, FIRES, end of study period): ✓ | QOL measure: Very much improved ([2]; patient LCH-21, CDKL5, end of study period): ✓ | QOL measure: Very much improved ([2]; patient LCH-22, Tuberous sclerosis, end of study period): ✓ | QOL measure: Much worse ([2]; patient MAR-E1, FIRES, end of study period): ✓ | QOL measure: Very much improved ([2]; patient MAR-E2, FIRES, end of study period): ✓ | QOL measure: Very much improved ([2]; patient PAT-10, Aicardi, end of study period): ✓ | QOL measure: Very much improved ([2]; patient PAT-11, Aicardi, end of study period): ✓ | QOL measure: Very much improved ([2]; patient PAT-21, Aicardi, end of study period): ✓ | QOL measure: Much improved ([2]; patient PAT-26, Aicardi, end of study period): ✓ | QOL measure: Much improved ([2]; patient WIL-02, Sturge Weber, end of study period): ✓ | QOL measure: Much improved ([2]; patient WIL-05, Doose, end of study period): ✓ | QOL measure: Much improved ([2]; patient WIL-09, CDKL5, end of study period): ✓ | QOL measure: Much improved ([2]; patient WIL-10, Angelman, end of study period): ✓ | quality of life in patients with additional epilepsy syndromes ([2]; tuberous sclerosis, CDKL5, Sturge Weber, Doose, Angelman, SNAP25, FIRES, DUP15Q, Aicardi): observable improvement in quality of life | areas where improvement was observed without an improvement of seizures ([3]; bottom right area of the biplot): control/helplessness and stigma item | areas associated with quality of life with improvements (right of the zero F1 axis) ([3]; open label study, 12 weeks, 5 to 50 mg/kg/day): attention and concentration; QOL item; energy/fatigue; control/helplessness and stigma item | cognitive performances of rats exhibiting spontaneous recurrent seizures [4]: restore the deteriorated cognitive performances | seizure ratio of rats exhibiting spontaneous recurrent seizures [4]: improved the seizure ratio | QOL domains with a significant increase above baseline ([5]; Lennox-Gastaut syndrome): memory and language | domains with a decrease in quality of life ([5]; Lennox-Gastaut syndrome): no domains where there was a decrease in quality of life | Biostatistical analysis of QOL subscale score versus placebo ([5]; QOL subscale: Anxiety): ↔ | Biostatistical analysis of QOL subscale score versus placebo ([5]; QOL subscale: Attention / concentration): ↔ | Biostatistical analysis of QOL subscale score versus placebo ([5]; QOL subscale: Behaviour): ↔ | Biostatistical analysis of QOL subscale score versus placebo ([5]; QOL subscale: Control / helplessness): ↔ | Biostatistical analysis of QOL subscale score versus placebo ([5]; QOL subscale: Depression): ↔ | Biostatistical analysis of QOL subscale score versus placebo ([5]; QOL subscale: Energy/fatigue): ↔ | Biostatistical analysis of QOL subscale score versus placebo ([5]; QOL subscale: General health): ↔ | Biostatistical analysis of QOL subscale score versus placebo ([5]; QOL subscale: Language): ↑* | Biostatistical analysis of QOL subscale score versus placebo ([5]; QOL subscale: Memory): ↑* | Biostatistical analysis of QOL subscale score versus placebo ([5]; QOL subscale: Other cognitive): ↑* | Biostatistical analysis of QOL subscale score versus placebo ([5]; QOL subscale: Physical restriction): ↔ | Biostatistical analysis of QOL subscale score versus placebo ([5]; QOL subscale: Self-esteem): ↔ | Biostatistical analysis of QOL subscale score versus placebo ([5]; QOL subscale: Social activities): ↔ | Biostatistical analysis of QOL subscale score versus placebo ([5]; QOL subscale: Social interaction): ↑ (a difference of greater than 10 points between medians (indicated by t)) | Biostatistical analysis of QOL subscale score versus placebo ([5]; QOL subscale: Stigma item): ↔ | QOLCE areas with improvements [6]: energy/fatigue; memory; other cognitive functions; control/helplessness; social interactions; behaviour and global quality of life
